Laboratory results: patent US20080213910A1, “METHOD FOR BLOCKING NON-SPECIFIC PROTEIN BINDING ON A FUNCTIONALIZED SURFACE” (priority 2006, published 2008)

Assays:
[1] = Sugars binding to amine surfaces (PWV change); conditions: for PWV change after over night incubation and wash: stored overnight in water
Protocol: Lactose and glyceraldehyde solutions in water at 5% and 2.5% respectively were added to a BIND™ sensor plate functionalized with amine functional groups for 2 hrs. The plate was then washed thoroughly with water and stored overnight in water. The plates were then washed again with water and the binding of sugars was measured.

[2] = SA binding to the aldehyde surface (PWV shift)
Protocol: (§1) 40 μl of 5% Trehalose solution was added to SA immobilized wells (0.05 mg/ml SA and 0.2 mg/ml SA) and control wells (Trehalose alone) and were allowed to bind for 2 hrs. The plates were washed and the peak wavelength value (PWV) shift was measured (See Table 6 and FIG. 2). The SA shift was the PWV of SA binding to the aldehyde surface, while the blocker shift was the PWV shift obtained after the blocker was allowed to bind to the unreacted aldehyde functional groups on the SA-immobilized aldehyde surface. The unreacted aldehydes are more easily accessed by the small blocker molecule than the bigger SA molecules. The blocker shift is lower with higher SA concentration likely because there are less aldehydes available for binding the blocker in these wells.

Carbonic Anhydrase (CA) = experiment: CBS binding to carbonic anhydrase after blocking with 5% trehalose (PWV shift); conditions: 5% trehalose block
Protocol: FIG. 5 represents the normalized peak wavelength value (PWV) resulting from CBS binding to carbonic anhydrase after blocking with 5% trehalose.
The CA surface was blocked with 5% trehalose. Trehalose blocking of non-specific interactions of CBS to the surface enabled detection of specific binding to CA below 1 μM.

SA surface [3] = biological target: T1, SA surface (Streptomyces avidinii, UniProt P22629); experiment: Biotin binding to SA surface in FBS, with and without trehalose blocking; conditions: for shift from biotin binding to SA surface: SA shift 5.8 nm
T1 sequence (P22629 25-183): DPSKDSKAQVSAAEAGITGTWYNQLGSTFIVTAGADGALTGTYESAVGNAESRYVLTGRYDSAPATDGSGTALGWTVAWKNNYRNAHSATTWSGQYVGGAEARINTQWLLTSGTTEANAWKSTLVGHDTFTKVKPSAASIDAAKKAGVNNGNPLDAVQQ
Protocol: In order to test the affect of trehalose on specific protein-protein interactions, the ability of trehalose to interfere with the ability of biotin to bind to a SA surface was measured. Biotin in either 10% or 100% FBS was allowed to react with the SA surface with the 5.8 nm PWV shift, and the resulting shift measured (see Table 8). The theoretical shift resulting from Biotin binding, shown in parenthesis, was calculated from the following formula: (Mol. Wt. of Biotin/Mol. Wt. of SA)×# of binding sites on SA for biotin×SA shift, or (244/55000)×4 (binding sites)×5.8 nm (SA shift).

[4] = Blocking of streptavidin (SA) surface with 5% trehalose (blocker PWV shift); type: binding; conditions: 2 hrs
Protocol: as §1

SA surface [5] = biological target: T1, SA surface; experiment: Trehalose efficacy to reduce non-specific FBS binding to the SA surface; conditions: for FBS 10% binding to SA surface (shift normalized to trehalose shift) / FBS 100% binding to SA surface (shift normalized to trehalose shift): blocked with 5% Trehalose
Protocol: In order to test the efficacy of trehalose to reduce non-specific binding, the ability of trehalose to reduce Fetal Bovine Serum (FBS) binding to the SA surface was measured. 10% and 100% commercially available FBS was allowed to react with either the SA surface with the 2 nm PWV shift or the 5.8 nm PWV shift, and the resulting shift measured (see Table 7 and FIG. 3). The shifts were normalized to the trehalose shift by considering the resulting signal after the surface has been blocked to be zero, or baseline. The change in binding due to the protein present in FBS is then measured and reported as non-specific binding.

**Q.** Which “PWV change after 2 hr incubation and wash” value ([1]; 5% solution in water) does the source give for `OC[C@H]1O[C@@H](O[C@H]2[C@H](O)[C@@H](O)C(O)O[C@@H]2CO)[C@H](O)[C@@H](O)[C@H]1O` (stereo partly shown) [Lactose] here?
**A.** Its value is 4.86 nm.

**Q.** And the “PWV change after over night incubation and wash” value ([1]; 5% solution in water)?
**A.** The value was 4.82 nm.

**Q.** Which SA shift ([2]; 0.05 mg/mL SA during immobilization) does the source give for streptavidin [SA] here?
**A.** Its SA shift is 2.00 Nm.

**Q.** What about the SA shift ([2]; 0.2 mg/mL SA during immobilization) of the same compound?
**A.** Its SA shift is 5.81 Nm.

**Q.** Which “PWV shift of CBS binding to CA” value (Carbonic Anhydrase (CA); CBS 0.05 μM) does the source give for `NS(=O)(=O)C(=O)O` [CBS, Carboxysulfonamide] here?
**A.** The value was 0.000 nm.

**Q.** What about the “PWV shift of CBS binding to CA” value (Carbonic Anhydrase (CA); CBS 0.10 μM) of the same compound?
**A.** Its value is 0.001 nm.

**Q.** What about the “PWV shift of CBS binding to CA” value (Carbonic Anhydrase (CA); CBS 0.20 μM) of the same compound?
**A.** The value was 0.003 nm.

**Q.** What about the “PWV shift of CBS binding to CA” value (Carbonic Anhydrase (CA); CBS 0.39 μM) of the same compound?
**A.** Its value is 0.005 nm.

**Q.** What about the “PWV shift of CBS binding to CA” value (Carbonic Anhydrase (CA); CBS 0.78 μM) of the same compound?
**A.** Its value is 0.010 nm.

**Q.** What about the “PWV shift of CBS binding to CA” value (Carbonic Anhydrase (CA); CBS 1.56 μM) of the same compound?
**A.** Its value is 0.020 nm.

**Q.** What about the “PWV shift of CBS binding to CA” value (Carbonic Anhydrase (CA); CBS 3.13 μM) of the same compound?
**A.** The value was 0.037 nm.

**Q.** And the “PWV shift of CBS binding to CA” value (Carbonic Anhydrase (CA); CBS 6.25 μM)?
**A.** Its value is 0.045 nm.

**Q.** What about the “PWV shift of CBS binding to CA” value (Carbonic Anhydrase (CA); CBS 12.50 μM) of the same compound?
**A.** The value was 0.054 nm.

**Q.** What about the “PWV shift of CBS binding to CA” value (Carbonic Anhydrase (CA); CBS 25.00 μM) of the same compound?
**A.** Its value is 0.054 nm.

**Q.** What about the “PWV shift of CBS binding to CA” value (Carbonic Anhydrase (CA); CBS 50.00 μM) of the same compound?
**A.** The value was 0.062 nm.

**Q.** What does the source list for `O=CC(O)CO` (stereo not shown) [Glyceraldehydes, glyceraldehyde]?
**A.** PWV change after 2 hr incubation and wash ([1]; 2.5% solution in water): 1.75 nm; PWV change after over night incubation and wash ([1]; 2.5% solution in water): 1.72 nm

**Q.** Which “theoretical shift resulting from Biotin binding (in parenthesis)” value (SA surface [3]; (244/55000) x 4 binding sites x 5.8 nm SA shift) does the source give for `O=C(O)CCCC[C@@H]1SC[C@@H]2NC(=O)N[C@@H]21` [Biotin] here?
**A.** Its value is 0.104 nm.

**Q.** And the “shift from biotin binding to SA surface” value (SA surface [3]; biotin in FBS 10%, 5% Trehalose)?
**A.** The value was 0.09 nm.

**Q.** And the “shift from biotin binding to SA surface” value (SA surface [3]; biotin in FBS 10%, No Trehalose)?
**A.** Its value is 0.08 nm.

**Q.** And the “shift from biotin binding to SA surface” value (SA surface [3]; biotin in FBS 100%, 5% Trehalose)?
**A.** Its value is 0.1 nm.

**Q.** What about the “shift from biotin binding to SA surface” value (SA surface [3]; biotin in FBS 100%, No Trehalose) of the same compound?
**A.** The value was 0.12 nm.

**Q.** What does the source list for `OC[C@H]1O[C@H](O[C@H]2O[C@H](CO)[C@@H](O)[C@H](O)[C@H]2O)[C@H](O)[C@@H](O)[C@@H]1O` [Trehalose]?
**A.** Blocker shift 5% Trehalose ([4]; aldehyde surface (no streptavidin)): 2.91 nm; Blocker shift 5% Trehalose ([4]; wells immobilized with 0.05 mg/mL SA): 2.96 nm; Blocker shift 5% Trehalose ([4]; wells immobilized with 0.2 mg/mL SA): 2.19 nm; effect on non-specific binding of proteins from FBS to the SA surface (SA surface [5]): reduced the non-specific binding of proteins from FBS to the SA surface; FBS 10% binding to SA surface (shift normalized to trehalose shift) (SA surface [5]; SA shift 2 nm surface): 2.41 nm; FBS 100% binding to SA surface (shift normalized to trehalose shift) (SA surface [5]; SA shift 2 nm surface): 1.27 nm; FBS 10% binding to SA surface (shift normalized to trehalose shift) (SA surface [5]; SA shift 5.8 nm surface): 0.62 nm; FBS 100% binding to SA surface (shift normalized to trehalose shift) (SA surface [5]; SA shift 5.8 nm surface): 0.07 nm; interference with biotin binding to SA (SA surface [3]): does not seem to interfere with biotin binding
